From PubChem BioAssay AID1996
Converted amounts (≈) assume the structure as drawn.

Conditions: buffer; pH 7.4; 200.0 µM

SMILES | solubility kinetic [mg/mL]
O=C1c2ccccc2C(=O)N1C(CO)C(O)c1ccc([N+](=O)[O-])cc1 (configuration not stated) | > 0.0513
N#CCCN(C(=O)COC(=O)/C=C/c1cccs1)c1ccccc1 | 0.0099 (≈ 29.1 µM)
O=S(=O)(Nc1ccc(OC(F)(F)F)cc1)c1cccc2nonc12 | 0.0461 (≈ 128 µM)
CCOC(=O)C1(C)NC(c2ccco2)C2C(=O)N(CC)C(=O)C21 (configuration not stated) | > 0.0481
Cc1ccc(C)c(NC(=S)NCc2ccccc2)c1 | 0.0402 (≈ 149 µM)
CCN(CC(=O)N1CCOCC1)S(=O)(=O)c1ccccc1 | > 0.0469
C/C(=C\C(=O)c1ccc(Cl)cc1Cl)N(C)C | 0.0038 (≈ 14.7 µM)
O=C(Nc1ccccc1)c1ccc(-c2ccc([N+](=O)[O-])cc2)o1 | 0.0074 (≈ 24 µM)
O=C(NCc1ccco1)c1ccccc1O | 0.0229 (≈ 105 µM)
O=C(Cc1ccc(F)cc1)NC1CCSC1=O (configuration not stated) | > 0.038
O=S(=O)(Nc1c(F)cccc1F)c1ccc2c(c1)OCCO2 | 0.0025 (≈ 7.64 µM)
COc1ccccc1NC(=O)CCn1c(=S)oc2ccccc21 | 0.007 (≈ 21.3 µM)
Cc1ccsc1C(=O)OCC(=O)NCc1ccco1 | 0.0411 (≈ 147 µM)
CC(C)NCC(=O)Nc1c2c(nc3ccccc13)CCC2.O=C(O)C(=O)O | > 0.056
O=C(Nc1cccc(Cl)c1)N1CCCCCC1 | 0.0051 (≈ 20.2 µM)
CCOc1ccc(N(C)Cc2cc(=O)oc3ccc(OC)cc23)cc1 | 0.0081 (≈ 23.9 µM)
Cn1cnc(S(=O)(=O)Nc2ccccc2N2CCOCC2)c1 | > 0.0484
CC(=O)c1ccc(NC(=O)NC2CCCCCCC2)cc1 | 0.0051 (≈ 17.7 µM)
O=C(Nc1ccccc1-c1ccccc1)C1CCCC1 | 0.0324 (≈ 122 µM)
O=C1CCCC(O)=C1N=Nc1ccc(C(=O)O)cc1 | > 0.039
CCOC(=O)C1=C(COC(=O)c2ccco2)NC(=O)NC1CC (configuration not stated) | > 0.0483
Cc1ccc(-c2c[n+](CC(=O)Nc3ccc(C)cc3C)c3n2CCC3)cc1.[Cl-] | > 0.0594

SMILES | solubility kinetic [mg/mL]
COc1ccc(O)c(/C=C2/SC(=S)N(Cc3ccccc3)C2=O)c1 | < 0.0008
O=C(Nc1ccccc1)OCCOc1ccccc1Br | < 0.0007
CCOC(=O)c1ccc2[nH]c3c(c2c1)CCCC3NC=O (configuration not stated) | > 0.0429
N#C/C(=C\c1cccs1)C(=O)N1CCOCC1 | 0.0355 (≈ 143 µM)
CCOC(=O)c1ccc(CSC(=N)N)o1 | 0.0314 (≈ 138 µM)
Cc1ccccc1OCC(=O)NCCCNC(=O)c1ccncc1 | 0.0398 (≈ 122 µM)
CCOC1C(=O)NC(=O)N1Cc1ccccc1 (configuration not stated) | 0.0298 (≈ 127 µM)
Cc1ccc(C(=O)NCCN2CCN(C(=O)c3ccc(C)c(C)c3)CC2)cc1C | 0.0531 (≈ 135 µM)
CC(C)CC(=O)NC1(C(F)(F)F)NC(=O)N(c2ccccc2)C1=O (configuration not stated) | 0.0458 (≈ 133 µM)
COCCCn1c(=O)c2ccccc2n(Cc2ccccc2C)c1=O | > 0.0508
CN(C)C(=O)c1ccc(OCC(F)(F)F)nc1 | 0.0367 (≈ 148 µM)
C=CCNC(=O)/C(C#N)=C/c1ccc2c(c1)OCCO2 | 0.007 (≈ 25.9 µM)
Cc1cccc(C)c1NC(=O)CSC(=S)N1CCCC1 | 0.0096 (≈ 31.1 µM)
COc1cccc(OC)c1C(=O)Nc1ccc2nc(C)c(C)nc2c1 | 0.0045 (≈ 13.3 µM)
CCN1CCN(CC(=O)Nc2ccc(C(C)=O)cc2)CC1.Cl | 0.0452
O=C(O)/C(=C\c1ccco1)NC(=O)c1ccc(Br)o1 | > 0.0489
Cc1noc(C)c1CNCc1ccccc1.O=C(O)C(=O)O | > 0.0459
Nc1c(C(=O)OCC(=O)Nc2ccccc2Br)[nH]c(=O)[nH]c1=O | 0.0256 (≈ 66.8 µM)
O=C(CC(=O)c1ccccc1)Nc1ccccc1 | 0.0295 (≈ 123 µM)
Nc1nc(Cl)cc(Oc2ccc(Cl)cc2)n1 | 0.001 (≈ 3.9 µM)
NC(=O)c1ccc(=O)n(Cc2ccc(Cl)cc2Cl)c1 | > 0.0446
CCc1ccc(N(C(C)=O)c2nc(CCl)cs2)cc1 | > 0.0442

SMILES | solubility kinetic [mg/mL]
Cc1ccc(NC(=S)N(CCN(C)C)C(C)c2cccnc2)cc1 (configuration not stated) | > 0.0514
CC(C)(C)c1ccc(NC(=O)c2cc[n+]([O-])cc2)cc1 | 0.0361 (≈ 134 µM)
Cc1cc(=O)n2c(-c3ccc(Cl)cc3)csc2n1 | 0.0079 (≈ 28.5 µM)
COC(=O)c1ccc(S(=O)(=O)N2CCCCCC2)n1C | > 0.0451
COc1ccccc1C(C)NC(=O)c1ccc(S(=O)(=O)NCc2ccco2)cc1 (configuration not stated) | 0.0126 (≈ 30.4 µM)
COc1ccc(C2CC(=O)C(C=NCC(C)C)=C(O)C2)cc1 (configuration not stated) | 0.0406 (≈ 135 µM)
CCOC(=O)CC1C(=O)NCCN1Cc1ccc(OC)c(OC)c1 (configuration not stated) | > 0.0505
COc1ccc(CNC(=O)CCn2c(=O)[nH]c3ccccc3c2=O)cc1 | 0.0029 (≈ 8.21 µM)
COc1cc(C=NNC(=O)c2ccccc2-n2cccc2)ccc1O | > 0.0503
Cc1ccc(OCCNC(=O)c2ccccc2F)cc1 | 0.0365 (≈ 134 µM)
O=C(/C=C/NCc1cccnc1)C(F)(F)C(F)(F)F | > 0.042
COc1ccc(N2C(=O)[C@@H]3C(c4cccnc4)=NO[C@@H]3C2=O)cc1 | 0.045 (≈ 139 µM)
O=C1CC(c2ccc(Cl)cc2)CC(O)=C1C=NCCO (configuration not stated) | > 0.0441
O=S(=O)(Cc1ccccc1)Cc1cnc(Cl)s1 | > 0.0432
O=C(O)c1ccc(Cn2cc(/C=C\[N+](=O)[O-])c3ccccc32)o1 | > 0.0468
COc1ccc(NC(=O)c2cc(-c3ccc(C)cc3)on2)cc1OC | < 0.0004
O=C(C1CC(=O)N(c2ccccc2)C1)N1CCCCCC1 (configuration not stated) | > 0.043
O=C(NC(=S)Nc1ccc2ncccc2c1)c1ccccc1 | 0.0014 (≈ 4.55 µM)
NC(=O)c1cn(C2CCCCC2)c2ccccc2c1=O | > 0.0405
Cc1cc(/C=C2/C(=O)NC(=O)N(C)C2=O)c(C)n1-c1ccccc1 | 0.0011 (≈ 3.4 µM)
Cc1ccc(NC(=O)Nc2cc(S(C)(=O)=O)ccc2Cl)cc1 | 0.0011 (≈ 3.25 µM)
Cc1ccccc1C(=O)Nc1ccc2c(c1)OCCO2 | > 0.0404

SMILES | solubility kinetic [mg/mL]
CN(C)C(=S)NC(=O)C12CC3CC(C)(CC(C)(C3)C1)C2 | 0.0274 (≈ 93.1 µM)
CCC(C)c1ccccc1NC(=O)c1cc(C)no1 (configuration not stated) | > 0.0387
COc1ccc(C(=O)Nc2ccc(N3CCN(C)CC3)cc2)cc1 | 0.0427 (≈ 131 µM)
CC(=O)c1cccc(S(=O)(=O)NCCC(=O)O)c1 | 0.0254 (≈ 93.6 µM)
COc1cc2ccccc2cc1C(=O)N1CCCCC1 | > 0.0404
COc1ccccc1-c1nnc(SCC(=O)NC2CCCCC2)n1N | > 0.0542
COc1ccccc1C(=O)NC(=O)Nc1c(C)cc(C)cc1C | 0.0007 (≈ 2.24 µM)
Nc1nccc(-c2ccc(-n3cnc4ccccc43)cc2)n1 | 0.002 (≈ 6.96 µM)
CC(=O)c1ccc(S(=O)(=O)Nc2ccc3c(c2)OCO3)cc1 | > 0.0479
Cc1ccc2nc(Nc3ncc4c(n3)CC(C)(C)CC4=O)nc(C)c2c1 | 0.0105 (≈ 30.2 µM)
Cc1ccnc(NC(=O)c2cccc3ccccc23)c1 | 0.0061 (≈ 23.3 µM)
Cc1nc([N+](=O)[O-])c(Br)n1Cc1ccccc1 | > 0.0444
Cc1ccc(Nc2c(-c3ccccc3)nc3cnccn23)cc1 | 0.0011 (≈ 3.66 µM)
CN(C)C(CNC1CC(C)(C)NC(C)(C)C1)c1cccc(F)c1 (configuration not stated) | 0.0347 (≈ 108 µM)
Clc1ccccc1-c1nc(-c2ccncc2)no1 | 0.007 (≈ 27.2 µM)
CCOC(=O)c1c(C)[nH]c(C(=O)NCC(c2ccco2)N2CCCCC2)c1C (configuration not stated) | 0.002 (≈ 5.16 µM)
CC1=C(C#N)C(c2ccc(O)cc2)C(C#N)=C(C)N1 | > 0.0377
Nc1c(Cl)ncnc1NCc1cccnc1 | > 0.0354
O=C(O)c1cccc2c3c([nH]c12)CCCC3 | > 0.0323
COc1ccc(S(=O)(=O)NC2CCCCCC2)cc1C(N)=O | 0.0119 (≈ 36.5 µM)
C=CCNc1nc(C(=O)OCC(=O)c2ccccc2)cs1 | 0.0045 (≈ 14.9 µM)
